Test results: patent publication US4814329A, “Antihyperlipoproteinemic 5-substituted sulfur-containing benzimidazole derivatives” (Richter Gedeon Vegyeszeti Gyar R.T., priority 1985, dated 1989)
Counter-ions that a name gives are not always drawn. Like-named read-outs stand apart in the source and are kept apart here.

Columns and labels:
[1] = test system: rats with the cholesterol diet; test: in vivo test in rats with the cholesterol diet, 10 day treatments (Table 2); conditions: rat; for LDL + VLDL percentile change / Serum cholesterol percentile change / triglyceride percentile change / HDL cholesterol percentile change: 10 day treatment
Experimental: […] (Schurr, P. E.; Schultz, J. R., Day, D. E.; Atherosclerosis Drug Discovery Ed.: C. E. Day, Plenum, New York 215 (1976) and Acta Pharm. Hung., 49, 182. (1979) During this time the total cholesterol level of the serum increased with 200-250% compared to the normal level, while the amount of the HDL chloesterol diminished by 45-50%. Groups consisting of six animals were formed. […] Then after a 18 hour starving the animals were bled to death under etheric narcosis on the 8th day. The blood samples were centrifuged and the serum total cholesterol and the HDL cholesterol were determined by Backmann enzymatic test, while the triglyceride concentration of the serum was determined by Van Handel's method (J. Lab.: Clin. Med. 41, 486 (1953). The amount of the LDL+VLDL was measured by manganese precipitation turbidimetrically (Schurr, P. E., Schulz, J. R., Day, C. E.: Atherosclerosis Drug Discovery Ed.: C. E. Day, Plenum Press, New York 215 (1976). The antiaggreagtion activity was measured in vitro on human plasm being rich in thrombocytes by a Chrono-log aggregometer. The aggregation was induced by ADP, adrenaline, collagen and arachidonic acid. […]. The lipidperoxidation was induced by N-ethyl-alenicimide (Arzneimittel-Forschung 29, 981 (1979).
The affect of compound no. 0202479 to the rats with the
cholesterol diet in 10 day treatments

[2] = test system: human plasm being rich in thrombocytes; test: in vitro antiaggregation activity (Chrono-log aggregometer; ADP, adrenaline, collagen, arachidonic acid); type: cell-based; conditions: for inhibition at 250 µM / inhibition at 500 µM / inhibition at 1000 µM: Homo sapiens
Source text: Whistar hannover male rats weighing 140-160 g were fed for 7 days with a rat fodder supplemented with 1.5% of cholesterol, 0.5% of sodium cholate and 5% of solid fat. (Schurr, P. E.; Schultz, J. R., Day, D. E.; Atherosclerosis Drug Discovery Ed.: C. E. Day, Plenum, New York 215 (1976) and Acta Pharm. Hung., 49, 182. (1979) During this time the total cholesterol level of the serum increased with 200-250% compared to the normal level, while the amount of the HDL chloesterol diminished by 45-50%. Groups consisting of six animals were formed. The compounds of the invention were administered orally starting on the fourth day of the addition of the cholesterol fodder and it was continued by the end of the experiments, by the seventh day, in one or two doses. Then after a 18 hour starving the animals were bled to death under etheric narcosis on the 8th day. The blood samples were centrifuged and the serum total cholesterol and the HDL cholesterol were determined by Backmann enzymatic test, while the triglyceride concentration of the serum was determined by Van Handel's method (J. Lab.: Clin. Med. 41, 486 (1953). The amount of the LDL+VLDL was measured by manganese precipitation turbidimetrically (Schurr, P. E., Schulz, J. R., Day, C. E.: Atherosclerosis Drug Discovery Ed.: C. E. Day, Plenum Press, New York 215 (1976). The antiaggreagtion activity was measured in vitro on human plasm being rich in thrombocytes by a Chrono-log aggregometer. The aggregation was induced by ADP, adrenaline, collagen and arachidonic acid. The determination of the inhibition of the lipidperoxidation was carried out by thiobarbituric acidic method with the aid of washed human thrombocyte suspension. The lipidperoxidation was induced by N-ethyl-alenicimide (Arzneimittel-Forschung 29, 981 (1979).

[3] = test system: washed human thrombocyte suspension; test: inhibition of lipidperoxidation, thiobarbituric acidic method; type: cell-based; conditions: induced by N-ethyl-alenicimide, read-out: medium inhibiting concentration, lipidperoxidation
Experimental: Whistar hannover male rats weighing 140-160 g were fed for 7 days with a rat fodder supplemented with 1.5% of cholesterol, 0.5% of sodium cholate and 5% of solid fat. […] The blood samples were centrifuged and the serum total cholesterol and the HDL cholesterol were determined by Backmann enzymatic test, while the triglyceride concentration of the serum was determined by Van Handel's method (J. Lab.: Clin. Med. 41, 486 (1953). The amount of the LDL+VLDL was measured by manganese precipitation turbidimetrically (Schurr, P. E., Schulz, J. R., Day, C. E.: Atherosclerosis Drug Discovery Ed.: C. E. Day, Plenum Press, New York 215 (1976). The antiaggreagtion activity was measured in vitro on human plasm being rich in thrombocytes by a Chrono-log aggregometer. The aggregation was induced by ADP, adrenaline, collagen and arachidonic acid. […]

[4] = acute toxicity, oral, mice; set-up: species or system male and female mice; conditions: mouse, in vivo, observed 14 days
Source text: (§1) The acute toxicity of this compound was examined on male and female mice and rats by oral administration.

[5] = acute toxicity, oral, rats; set-up: species or system male and female rats; conditions: rat, in vivo, observed 14 days
Source text: as §1

[6] = ADP induced, read-out: Aggregation inhibition, ADP
[7] = adrenaline induced, read-out: Aggregation inhibition, Adrenaline
[8] = collagen induced, read-out: Aggregation inhibition, Collagene

C=CCSc1nc2ccc(Cc3ccccc3)cc2[nH]1 [compound 0202479, 5-Benzyl-2-(2-propenylthio)-benzimidazole hydrobromide, hydrochloride and base]
effectiveness, in words [1]: remarkably effective | LDL + VLDL percentile change ([1]; 10.0 mg/kg p.o.): -20.8 percentile change | Serum cholesterol percentile change ([1]; 10.0 mg/kg p.o.): -7.8 percentile change | triglyceride percentile change ([1]; 10.0 mg/kg p.o.): -3.1 percentile change | HDL cholesterol percentile change ([1]; 10.0 mg/kg p.o., * 0.01 P 0.05): +47.7 percentile change | HDL cholesterol percentile change ([1]; 30.0 mg/kg p.o.): +40.1 percentile change | Serum cholesterol percentile change ([1]; 30.0 mg/kg p.o., * 0.01 P 0.05): -41.5 percentile change | LDL + VLDL percentile change ([1]; 30.0 mg/kg p.o., ** P 0.01): -48.5 percentile change | triglyceride percentile change ([1]; 30.0 mg/kg p.o., ** P 0.01): -47.7 percentile change | Serum cholesterol percentile change ([1]; 100.0 mg/kg p.o.): -66.3 percentile change | HDL cholesterol percentile change ([1]; 100.0 mg/kg p.o., ** P 0.01): +56.1 percentile change | LDL + VLDL percentile change ([1]; 100.0 mg/kg p.o., ** P 0.01): -80.5 percentile change | triglyceride percentile change ([1]; 100.0 mg/kg p.o., ** P 0.01): -55.8 percentile change | inhibition of aggregation caused by ADP and adrenaline, in words ([2]; ADP and adrenaline): inhibited by the compound-similarly to Clofibrate--in the second phase | inhibition at 250 µM ([2]; read-out: inhibition of aggregation induced by arachidonic acid): 100% | inhibition at 250 µM [2, 6]: 20% | inhibition at 500 µM [2, 6]: 59% | inhibition at 1000 µM [2, 6]: 66% | inhibition at 250 µM [2, 7]: 9% | inhibition at 500 µM [2, 7]: 16% | inhibition at 1000 µM [2, 7]: 73% | inhibition at 250 µM ([2]; arachidonic acid induced, read-out: Aggregation inhibition, Arachidonic acid): 100% | inhibition at 250 µM [2, 8]: 6% | inhibition at 500 µM [2, 8]: 16% | inhibition at 1000 µM [2, 8]: 39% | IC50 [3]: 24 µM | LD50 at 336 h [4]: 960 mg/kg | LD50 at 336 h [5]: > 2000 mg/kg
